In patent US12365665B2, “Solid form of diaminopyrimidine compound or hydrate thereof, preparation method therefor, and application thereof” (BEIJING TIDE PHARMACEUTICAL CO., LTD., priority 2020, dated 2025):

How the values were obtained:
Format in all cases: physicochemical
[1] = High temperature stability test (XRPD); conditions: 60° C.
Experimental: (§1) The detection instruments and conditions used in the following examples are as follows: • (1) X-Ray Powder Diffraction (XRPD) • Instrument Model: Bruker D8 advance, equipped with a LynxEye detector • Test conditions: the anode target material was copper, the light pipe was set to (40 KV 40 mA), the 2θ scan angle for the sample was from 3° to 40°, and scan step was 0.02°. • (2) Differential Scanning Calorimetry Analysis (DSC) • Instrument Model: TA Discovery DSC 250 (TA Instruments, US) • Test conditions: the heating rate was 10° C./min, and dry nitrogen was used as the purge gas. • (3) Thermogravimetric Analysis (TGA) • Instrument Model: Discovery TGA 55 (TA Instruments, US) • Test conditions: automatic weighing in the heating furnace, the heating rate was 10° C./min, and dry nitrogen was used as the purge gas. • (4) Polarizing Microscope Analysis (PLM) • Instrument Model: Polarizing Microscope ECLIPSE LV100POL (Nikon, JPN)
The stability of the crystalline form I prepared in Example 2 was investigated at 60° C., and the XRPD pattern was measured with a Bruker D8 advance X-ray powder diffractometer (see FIG. 19).

[2] = Room temperature stability test (XRPD before and after storage); conditions: sealed in medicinal low-density polyethylene bag, 180 days
Experimental: as §1, with “JPN) […]” for “JPN)”

[3] = High humidity stability test (XRPD); conditions: 92.5% RH/25° C., after 5, 10 and 30 days
Experimental: as §1
The stability of the crystalline form I prepared in Example 2 was investigated under a condition of 92.5% RH/25° C., and the XRPD pattern was measured with a Bruker D8 advance X-ray powder diffractometer (see FIG. 20).

[4] = Physical grinding stability test (XRPD); conditions: physically ground for 2 minutes
Experimental: as §1
The crystalline form I prepared in Example 2 was physically ground for 2 minutes, and then the XRPD pattern was measured with a Bruker D8 advance X-ray powder diffractometer (see FIG. 21).

change in the crystalline form after storage under a high temperature condition (summary statement) ([1]; 30 days): its crystalline form did not change | change in the crystalline form (XRPD) at high temperature ([1]; after 5, 10 and 30 days): no change in the crystalline form | change in the crystalline form (XRPD) after storage at room temperature [2]: no change in the crystalline form | change in the crystalline form (XRPD) at high humidity [3]: no change in the crystalline form | change in the crystalline form (XRPD) after physical grinding [4]: no change in the crystalline form
Structure (SMILES): C#Cc1cc(Oc2cnc(N)nc2N)c(C(C)C)cn1 [crystalline form I, 5-((2-ethynyl-5-isopropylpyridin-4-yl)oxy)pyrimidine-2,4-diamine]
